{"source": "patent US20240263163A1", "about": "“CELL-FREE REGIONS BY LABEL-FREE MAGNETIC EXCLUSION” (McMaster University, priority 2021, published 2024)", "key": {"[1]": {"tested_on": "HBEC3 KT cells", "test": "cell-free area closure of annular monolayers formed by magnetic exclusion", "format": "cell-based, human", "details": "for closure rate of cell-free area: 0 h to 16 h, N=3", "method": "The cells were maintained at 37° C. and 5% CO2 in a humidified atmosphere.\nThe magnetic exclusion technique was applied to form annular HBEC3 KT monolayers in which HBEC3 KT cells were trypsinized at ˜80% confluency. A 96-well flat-bottom TCT plate (IBIDI) was placed on an array of coaxially arranged ring and cylinder magnets (N52 grade, Zigmyster Magnets). The stock gadolinium-based paramagnetic solution (1 M) was diluted to 25×10^−3 M using the serum-free culture medium. A 250 μL suspension of ˜50,000 cells in 25×10^−3 M paramagnetic solution was added to the wells. After a 3 h incubation period (37° C. and 5% CO2 in a humidified atmosphere), the well plate was removed from the magnet array. The paramagnetic solution was removed, and the wells were washed twice with 200 μL culture medium. […] Tissue culture wells were plasma treated to enhance the attachment of the ECM proteins to the well surfaces. A 300 μL solution of collagen I (500 μg mL^−1) and fibronectin (12 μg mL^−1) was added to the wells. The well plate was incubated at 4° C. overnight, and subsequently, the coated wells were rinsed with phosphate-buffered saline (PBS). Annular HBEC3 KT monolayers were assembled magnetically on the coated surfaces. A fluorescent dye solution of 2 μM Calcein AM and Hoechst 33342 (2 drops per mL) was used to stain the monolayers. Brightfield and fluorescent images were taken using a 10× objective of an EVOS M7000 inverted microscope (ThermoFisher). Excitation/emission wavelengths of 470/525 nm and 357/447 nm were used for Calcein AM and Hoechst 33342, respectively.\nThe experimental study also involved assessing annular HBEC3 KT monolayer formation by gravitational settling. Annular inserts were 3D printed with a Formlabs Form 2 printer using a clear resin (RS-F2-GPCL-04). The inserts were attached to the well surfaces of a 12-well plate using patterned double-sided silicone adhesive tapes. The well plates containing the inserts were sterilized with UV radiation. A 100 μL suspension of ˜50,000 HBEC3 KT cells in culture medium was added to the inserts. After a 3 h incubation period, the inserts were removed, and the wells were washed twice with 500 μL culture medium.\nCell counting and geometric measurements were automatically determined in the experimental study from fluorescent images with ImageJ Fiji. The watershed segmentation algorithm (Process—Binary—Watershed) was used to distinguish cells in high cell density regions. The brightfield image contrast was adjusted using the Enhance Local Contrast (CLAHE) ImageJ plugin to measure the cell-free area. The Sobel edge detection algorithm (Process—Find edges) was used to highlight the boundaries of the monolayers. Next, image smoothing was performed using the Gaussian Blur filter (Process—Filter—Gaussian Blur). The cell-free areas were measured automatically after setting the image threshold. The equivalent diameters were calculated from the cell-free areas. The monolayer annulus width was determined by taking the average of the annulus widths measured at four orthogonal positions. The straight-line tool of ImageJ was used for the measurements.\nThe cell-free area closure of the annular monolayers was also studied in the experiments. […] The annular monolayers were produced on TCT and collagen I-fibronectin coated well surfaces to investigate the influence of the underlying substrate on the closure rate.\nThe initial boundary of the cell-free region is marked by a white dotted line (e.g., see FIG. 6A).\nThe closure rates are calculated by measuring the differences between the mean initial and final cell-free areas at 0 h and 16 h."}, "[2]": {"tested_on": "HBEC3 KT cells", "test": "reaction-diffusion (FKPP/Porous-Fisher) numerical model and logistic growth fit of cell-free area closure", "set-up": "species or system human", "details": "for growth rate λ: from logistic growth equation, U at 16 h and U0; for D0 / D1 / m: Replicate 1", "method": "Numerical model: The Fisher—Kolmogorov—Petrovsky—Piskunov (FKPP) reaction-diffusion equation is routinely used to model the closure of rectangular cell-free areas in scratch-based assays^27,47,48. The FKPP equation consists of a diffusion term that describes cell migration and a source term representing cell proliferation. The one-dimensional axisymmetric form of the FKPP equation is given by equation (6):^49\nwhere U denotes the cell density (cells mm^−2) and D the cell diffusivity (mm^2 h^−1). The source term consists of a logistic growth function G=λ(1−U/K) with growth rate λ(h^−1) and carrying capacity K (cells mm^−2)^47. The carrying capacity is the maximum density for a cell monolayer when contact inhibition reduces the net cell proliferation to zero^47. The classical FKPP model assumes a constant cell diffusivity D=D0, where D0 is the diffusivity for isolated cells^27,47. In contrast, the Porous-Fisher model, which is an extension of the FKPP model, uses a diffusivity function D=D0(U/K)^m that increases with cell density (m>0), where D0 denotes the maximum diffusivity^47,50.\nBesides cell migration, cell proliferation leads to the closure of cell-free areas. To determine […], a logistic growth equation^51 was used as shown in equations 7 and 8:\nwhere U0 denotes the initial cell density. The maximum cell density determined by counting cells in the confluent regions of annular HBEC 3KT monolayers gives K=1690 cells mm^−2, which is consistent with the previously reported values^28,52. Experimentally derived values of U at 16 h and U0 were used to calculate λ from Equation 8.\nBrightfield images of the annular monolayers were taken every 2 h over 16 h to track the closures of the cell-free areas on TCT surfaces. Consistent with the monolayer geometry, circular tracks of ˜0.14 mm width were superimposed on the brightfield images to manually count the cells within the domain 0≤r≤Rmax. The total number of cells counted in each track was divided by the respective annulus area to generate experimental cell density datasets. In the cell density plots, each track was represented by the radial distance of its midpoint from the center of the annular monolayer.\nThe finite volume method (FVM) with a time marching scheme was used to discretize and predict cell density (Up) values from Equation 6. A linear combination of the classical FKPP and Porous-Fisher diffusivity functions were used, i.e., D=D0+D1(U/K)^m, to model the spatiotemporal change in cell density on the TCT surfaces. The combined diffusivity function was previously used to fit cell density profiles of scratch assays with rectangular cell-free areas^50. A zero net flux boundary condition was imposed at both r=0 and r=Rmax^28,50.\nAs the cell density decreases at the boundary Rmax, the zero net flux condition applied at this boundary is an approximation. A Genetic Algorithm (GA)-based error minimization approach was implemented to minimize the root mean squared error (RMSE) between Up and the experimental (Uexp) cell density values^53 as shown in equation 9.\nThe cell density was measured at 15 locations within 0≤r≤Rmax and the index i denotes the location number. The index j indicates timepoints, where j=1, 2, 3 and 4 corresponds to t=4, 8, 12 and 16 h. […] The limits for D0 are 0≤D0≤0.004 mm^2 h^−1, where D0=0.004 mm^2 h^−1 is the maximum isolated-cell diffusivity value reported in the literature^28,50.\nThe experimentally obtained cell-free area closure rates were approximately two orders higher than the maximum value of D0(Section 2.3). […] The exponent m determines whether the diffusivity D changes linearly or non-linearly with a change in cell density. However, the biological meaning of m is not yet fully understood^47. Here, the limits 0≤m≤4 are considered, where m=4 is the highest value reported in the literature^28,50. The experimentally derived values of λ are used in the model. […]"}, "[3]": {"tested_on": "HBEC3 KT cells", "test": "live/dead assay (NucBlue Live / NucGreen Dead)", "format": "cell-based", "method": "The experimental study also involved performing live/dead assays. A 400 μL suspension of ˜5000 HBEC3 KT cells in 25×10^−3 M paramagnetic solution was added to the wells of a 48-well TCT plate. After a 3 h incubation period, the paramagnetic solution was replaced with the culture medium. As controls, an equal number of cells were seeded into wells containing only the culture medium. The cell viability was assessed using the NucBlue Live and NucGreen Dead nuclear acid stains (ReadyProbes, ThermoFisher). Fluorescent images were taken at 24, 48, 96, and 144 h. Excitation/emission wavelengths of 357/447 nm and 470/525 nm were used for NucBlue and NucGreen, respectively. The quantification of live and dead cells was performed using ImageJ Fiji.\nIn the experimental study, all statistical tests were performed using the GraphPad Prism software (version 9.0.0). Two-way ANOVA with Bonferroni post hoc tests were performed to assess the effect of residual Gd^3+ on cell viability and metabolism over time. […] A p-value<0.05 was considered statistically significant. […]\n(§1) The effect of the residual Gd^3+ on cell viability was assessed at 24, 48, 96, and 144 h using a live/dead assay. […] Cell metabolism, which is an indicator of viability, was also measured using a resazurin-based assay (Presto Blue HS). The increase in the fluorescence intensity values over time indicates cell proliferation."}, "[4]": {"tested_on": "HBEC3 KT cells", "test": "resazurin-based metabolism assay (Presto Blue HS)", "format": "cell-based", "details": "25×10^−3 M paramagnetic solution 3 h, then 24, 48, 96 and 144 h", "method": "The experimental study also involved performing a metabolism assay. A 250 μL suspension of ˜4000 HBEC3 KT cells in 25×10^−3 M paramagnetic solution was added to the wells of a 96-well plate. Following a 3 h incubation period, the paramagnetic solution was replaced with the culture medium. An equal number of cells suspended in the culture medium were added to the wells as controls. A resazurin-based assay (Presto Blue HS, ThermoFisher) was used to analyze cell metabolism at 24, 48, 96, and 144 h. The fluorescence intensity was measured at multiple spots within each well using excitation/emission wavelengths of 560/590 nm (SpectraMax i3, Molecular Devices). Blank wells containing only culture medium were used to account for background fluorescence. The average fluorescence intensity of the blanks was subtracted from the average fluorescence value obtained from each well of the Gadolinium and control groups.\nIn the experimental study, all statistical tests were performed using the GraphPad Prism software (version 9.0.0). […]\nas §1"}, "[5]": {"tested_on": "HBEC3 KT cells", "test": "transcriptome analysis (Clariom S microarray)", "format": "cell-based, human", "details": "25×10^−3 M paramagnetic solution 3 h, RNA after 24 h, 21,448 genes, fold-change cutoff 2, FDR p<0.05, N=4", "method": "The experimental study also involved performing transcriptome analysis. A 1.5 mL suspension of ˜500,000 HBEC3 KT cells in 25×10^−3 M paramagnetic solution was added to the wells of a 12-well TCT plate. Following a 3 h incubation period, the paramagnetic solution was replaced with the culture medium. After 24 h, total RNA was isolated and purified using RNeasy Mini Kit (Qiagen) as per the manufacturer's protocol. The RNA concentration and purity were measured using a spectrophotometer (NanoDrop, ThermoFisher). Transcriptome analysis was performed using Clariom S microarray gene chips (ThermoFisher).\nIn the experimental study, all statistical tests were performed using the GraphPad Prism software (version 9.0.0). Two-way ANOVA with Bonferroni post hoc tests were performed to assess the effect of residual Gd^3+ on cell viability and metabolism over time. […] A p-value<0.05 was considered statistically significant. The statistical evaluation of the microarray datasets was performed using the transcriptome analysis console (TAC) software (ThermoFisher). The raw gene expression data were normalized using the signal space transformation-robust multiarray analysis (SST-RMA) algorithm^57. A fold-change cutoff value of 2 was used to identify the differentially expressed genes^42. […]"}, "[6]": {"tested_on": "cells", "details": "concentration of 25 mM; cited from earlier work"}, "[7]": {"details": "EGF 0.16 ng mL^−1, TCT surfaces"}, "[8]": {"details": "EGF 0.80 ng mL^−1, TCT surfaces"}}, "note": "Entries after “also recorded” stand apart in the source; their conditions may differ."}
{"compound": "epidermal growth factor [EGF]", "values": [{"measurement": "closure rate of cell-free area", "setting": "[1]; TCT surfaces, 0.16 ng mL^−1 EGF", "result": "~0.56±0.05", "unit": "mm^2 h^−1"}, {"measurement": "closure rate of cell-free area", "setting": "[1]; TCT surfaces, 0.8 ng mL^−1 EGF", "result": "~0.58±0.01", "unit": "mm^2 h^−1"}, {"measurement": "closure rate of cell-free area", "setting": "[1]; collagen I-fibronectin surfaces, 0.16 ng mL^−1 EGF", "result": "~0.61±0.01", "unit": "mm^2 h^−1"}, {"measurement": "closure rate of cell-free area", "setting": "[1]; collagen I-fibronectin surfaces, 0.8 ng mL^−1 EGF", "result": "~0.62±0.02", "unit": "mm^2 h^−1"}, {"measurement": "change in cell-free areas", "setting": "[1]; collagen I-fibronectin surfaces, 0.8 ng mL^−1 EGF, at 4 h, in contrast to TCT surfaces", "result": "significant decrease"}, {"measurement": "closure of cell-free regions", "setting": "[1]; collagen I-fibronectin surfaces, 0.8 ng mL^−1 EGF, at 16 h", "result": "near-complete closure"}, {"measurement": "growth rate λ", "setting": "[2]; 0.16 ng mL^−1 EGF", "result": "~0.03", "unit": "h⁻¹"}, {"measurement": "growth rate λ", "setting": "[2]; 0.8 ng mL^−1 EGF", "result": "~0.03", "unit": "h⁻¹"}, {"measurement": "λ", "setting": "[2]; EGF 0.16 ng mL^−1", "result": "2.91 h^−1 (×10^−2)"}, {"measurement": "D0", "setting": "[2]; [7]", "result": "3.06 mm^2 h^−1 (×10^−3)"}, {"measurement": "D1", "setting": "[2]; [7]", "result": 3.02, "unit": "mm^2 h^−1"}, {"measurement": "m", "setting": "[2]; [7]", "result": 1.97}, {"measurement": "φ (dimensionless number, higher indicates faster closure)", "setting": "[2]; EGF 0.16 ng mL^−1, tmax=24 h", "result": 3.23}, {"measurement": "λ", "setting": "[2]; EGF 0.80 ng mL^−1", "result": "2.91 h^−1 (×10^−2)"}, {"measurement": "D0", "setting": "[2]; [8]", "result": "3.91 mm^2 h^−1 (×10^−3)"}, {"measurement": "D1", "setting": "[2]; [8]", "result": 3.75, "unit": "mm^2 h^−1"}, {"measurement": "m", "setting": "[2]; [8]", "result": 2.62}, {"measurement": "φ (dimensionless number, higher indicates faster closure)", "setting": "[2]; EGF 0.80 ng mL^−1, tmax=24 h", "result": 3.60}]}
{"compound": "[Gd+3]", "note": "[Gd^3+]", "values": [{"measurement": "effect on closure of magnetically assembled monolayers", "setting": "[1]; vs gravity-assisted monolayers, no EGF, 0 and 16 h, TCT surfaces", "result": "insignificant"}, {"measurement": "effect on cell viability (viable cell counts)", "setting": "[3]; 25×10^−3 M paramagnetic solution 3 h, then 24, 48, 96 and 144 h, vs control", "result": "insignificant"}, {"measurement": "toxicity to the cells", "setting": "[3]; live/dead and metabolism assays, residual Gd^3+", "result": "not toxic"}, {"measurement": "cell metabolism (fluorescence intensity) vs control", "setting": "[4]", "result": "No significant difference"}, {"measurement": "differential gene expression / impact on transcriptional profiles", "setting": "[5]", "result": "no statistically significant differentially expressed genes; also recorded: statistically insignificant"}, {"measurement": "effect on cell viability", "setting": "[6]", "result": "does not affect cell viability"}]}
